Results taken from patent US20250375417A1, “OREXIN RECEPTOR 2 (OX2R) AGONIST FOR USE IN NARCOLEPSY TYPE 1 (NT1)” (TAKEDA PHARMACEUTICAL COMPANY LIMITED, priority 2024, published 2025).

Key:
participants with NT2 = experiment: MWT sleep onset latency, Phase 2 NT2 trial (Example 2); assay type: in vivo, human; settings: not statistically significant (p>0.4)
Protocol: In some aspects of the methods described herein, the subject experiences a higher mean sleep latency (also referred to as sleep onset latency or SOL) from the Maintenance of Wakefulness Test (MWT) after a treatment period compared to an untreated subject. The MWT is a validated, objective measure that evaluates a person's ability to remain awake under soporific conditions for a defined period of time. Because there is no biological measure of wakefulness, wakefulness is measured indirectly by the inability or delayed tendency to fall asleep. This tendency to fall asleep is measured via electroencephalography-derived sleep latency in the MWT. One MWT, that includes four 40-minute wake trials, is done on each day specified in the Schedule of Activities of the trial. Sleep latency in each wake trial is recorded. Participants are required to stay awake in between the 4 MWT wake trials.
During each MWT wake trial, participants are instructed to sit in a bed or reclining chair and remain awake for as long as possible in a dimly lit room. Wake trials are ended after 40 minutes if no sleep occurs. If no sleep has been observed according to these rules, then the latency is defined as 40 minutes.
Randomization was stratified by region. Starting on the morning of Day 1, the study drug was administered at approximately the same time each day for 8 weeks. […]

[1] = Clinical studies of Compound A: drug-induced liver injury; assay type: in vivo
From the text: Liver function test (LFTs) (alanine aminotransferase [ALT], aspartate aminotransferase [AST], γ-glutamyl transferase [GGT], and total bilirubin) were closely monitored in this study. Stopping criteria for individual participants and the overall study, based on abnormal LFTs were established.

patients with NT1 = system: patients with NT1; design: species or system human; settings: in vivo

With `CCS(=O)(=O)N[C@@H]1[C@H](Cc2cccc(-c3cc(F)cc(F)c3)c2F)N(C(=O)C(C)(C)O)CC1(F)F` [Compound A, N-{(2S,3R)-4,4-difluoro-1-(2-hydroxy-2-methylpropanoyl)-2-[(2,3′,5′-trifluoro[1,1′-biphenyl]-3-yl)methyl]pyrrolidin-3-yl}ethanesulfonamide] the “Estimated mean change from baseline to Week 8 in SOL-MWT versus placebo” value (participants with NT2; 2 mg/2 mg) was -0.24 min, the “Estimated mean change from baseline to Week 8 in SOL-MWT versus placebo” value (participants with NT2; 2 mg/5 mg) was 2.4 min and the Drug-induced liver injury [1] was “No cases of drug-induced liver injury have been reported”. The “Improvement on CPAL total errors” value (patients with NT1) was “statistically significant across all doses”, the “Improvement on ONB reaction time” value (patients with NT1) was “statistically significant across all doses” and the “Improvement on iDSST-s number correct” value (patients with NT1) was “statistically significant across all doses”.
